The text below walks through data of US20210386761A1, “COMPOSITION FOR PREVENTING OR TREATING INFLAMMATORY BOWEL DISEASE, CONTAINING, AS ACTIVE INGREDIENT, TAURODEOXYCHOLIC ACID OR PHARMACEUTICALLY ACCEPTABLE SALT THEREOF” (SHAPERON INC., priority 2019, published 2021).

One test relates to TNF-α. Kind of test: Pro-inflammatory cytokine ELISA of colon tissue, TNF-α. In kind it is in vivo, mouse. Particulars: for TNF-α in the colon tissue: Day 7, FIG. 7B. The procedure:
(§1) In order to evaluate the clinical symptoms-improving efficacy in comparison with those by clinical prescription drugs, inflammatory bowel disease was induced by 7-day or repeated administration of 3% or 2.5% DSS solution, and tofacitinib 10 mg/kg, 5-ASA 100 mg/kg or 200 mg/kg, prednisolone 1 mg/kg, and TDCA 2.5 mg/kg were administered one time a day from the start date of DSS administration. From the start date of DSS administration, TDCA 2.5 mg/kg was administered one time a day (QD), two times a day (BID), and three times a day (TID).
(§2) A colon was obtained from a mouse which had been subjected to an experiment by the same method as that described in <Example 2>, the peripheral colon was cut into 2 cm in length and the weight was recorded. Next, the colon was chopped into 1 mm pieces and frozen on ice, treated with 500 μl of cold DPBS containing protease inhibitor (Roche, 11836170001, Basel, Switzerland), and homogenized for 10 to 20 seconds using an electric homogenizer (IKA T10 Basic, Wilmington, SE, USA). The homogenate was centrifuged at 4° C. for 10 minutes at 12,000×g to obtain a supernatant. ELISA analysis was performed using the obtained supernatant, IL-6 DuoSet ELISA kit (R & D systems, USA), IL-1β DuoSet ELISA kit (R & D systems, USA), and TNF-α DuoSet ELISA kit (R & D systems, USA) according to the manufacturer's procedure to confirm the production of pro-inflammatory cytokines.
(§3) Specifically, female C57BL/6 mice were fed with a 2% DSS solution together with drinking water for 7 days from Day 0 of the experiment by the same method as that described in <Example 1>, DPBS or 5 mg/kg TDCA was administered to the mice by oral gavage from Day 1 of DSS administration or 2 days before DSS administration, and the body weight and DAI were measured daily. As a control, mice freely fed with drinking water were used. Next, the mice were sacrificed on Day 7 of the experiment by the same method as that described in <Example 3>, and the inflammatory cell and proinflammatory cytokine analysis was performed.

The test system of test [1] is inflammatory bowel disease-induced mouse model (DSS). The experiment in a line: Histopathological symptom analysis (colon length, histological state and score) in 2% DSS mouse model. Format: in vivo. The procedure: After the experiment was completed, the mice were euthanized with CO2 and the bowels were excised. Next, the bowels were put in cold 1×DPBS and the remaining mesenteric adipose tissue was isolated. At this time, the colon length was measured. Next, the tail end of the colon was opened and wound up with scissors to obtain colon tissue. The obtained colon tissue was fixed in 10% neutral buffered formalin (Sigma-Aldrich, HT501128-4L, St. Louis, Mo., USA) at room temperature for 48 hours and then treated in a tissue processor (Excelsior ES, Thermo scientific, Waltham, Mass., USA) for 12 hours. The processed tissue was sectioned and paraffinized using a microtome (Microm, HM 340E, Thermo Scientific, Waltham, Mass., USA) and an embedding system (HistoStar, Thermo Scientific, Waltham, Mass., USA). Next, the processed tissue was stained with hematoxylin and eosin, and visualized under an optical microscope (Motic, BA310, Redding, Calif., USA) to confirm the histopathological state, and the histopathological state was scored to histological score according to the criteria in the following [Table 2].
Specifically, female C57BL/6 mice were fed with a 2% DSS solution or DPBS together with drinking water for 7 days from Day 0 of the experiment by the same method as that described in <Example 1>, DPBS or 5 mg/kg TDCA was administered to the mice by oral gavage one time a day for 6 days from Day 1 of the experiment, and the body weight and DAI were measured daily. As a control, mice freely fed with drinking water were used. Next, the mice were sacrificed on Days 5 and 7 of the experiment by the same method as that described in <Example 2>, and histopathological symptom analysis was performed.
Specifically, female C57BL/6 mice were fed with a 2% DSS solution or DPBS together with drinking water for 7 days from Day 0 of the experiment by the same method as that described in <Example 1>, DPBS or 10, 5, 2.5, or 1 mg/kg TDCA was administered to the mice by oral gavage one time a day for 6 days from Day 1 the experiment, and the body weight and DAI were measured daily. As a control, mice freely fed with drinking water were used.
Next, the mice were sacrificed on Day 8 of the experiment by the same method as that described in <Example 2>, and histopathological symptom analysis was performed.
The mice were sacrificed on Day 8 of the experiment by the same method as that described in <Example 2>, and the colon length was measured.

Another test concerns IL-1β. The experiment in a line: Pro-inflammatory cytokine ELISA of colon tissue, IL-1β. In kind it is in vivo, mouse. As to conditions: for IL-1β in the colon tissue: Day 7. The procedure:
as §1, §2
as §3, with “oral gavage one time a day for 6 days from Day” for “oral gavage from Day”, “1 of the experiment, and the” for “1 of DSS administration or 2 days before DSS administration, and the”, “3>, and inflammatory cell” for “3>, and the inflammatory cell”
as §3

Setting [2] is: 3% DSS 7 days, TDCA 2.5 mg/kg vs tofacitinib 10 mg/kg and 5-ASA 100 mg/kg.
The mark [3] stands for this setting: 2% DSS 7 days, 5 mg/kg TDCA oral gavage, FIG. 2B.
Where [4] appears, read: 2% DSS 7 days, 10, 5, 2.5, or 1 mg/kg TDCA, Day 8, FIG. 5B.

Take `C[C@H](CCC(=O)NCCS(=O)(=O)O)[C@H]1CC[C@H]2[C@@H]3CC[C@@H]4C[C@H](O)CC[C@]4(C)[C@H]3C[C@H](O)[C@]12C` [TDCA, sodium taurodeoxycholic acid]: the “concentration of TNF-α in the colon tissue, compared with clinical prescription drugs” value with TNF-α (setting [2]) is “equivalent to those by tofacitinib 10 mg/kg and 5-ASA 100 mg/kg”. Also, the “TNF-α in the colon tissue” value with TNF-α (DSS+TDCA group: 5 mg/kg TDCA from Day 1 of DSS) and with TNF-α (DSS+preTDCA group: 5 mg/kg TDCA from 2 days before DSS) was “decreased” in each case. In addition, the colon length change entry was “the decrease in colon length was slight” in test [1] (2% DSS 7 days, 5 mg/kg TDCA oral gavage one time a day for 6 days, FIG. 2A); “the decrease in colon length was slight” in test [1] (2% DSS 7 days, 10, 5, 2.5, or 1 mg/kg TDCA, Day 8, FIG. 5A); “the decrease in colon length was slighter” in test [1] (2% DSS 7 days, TDCA at 5 and 10 mg/kg, Day 8, FIG. 5A); “the decrease in colon length was suppressed” in test [1] (DSS+TDCA group: 5 mg/kg TDCA from Day 1 of DSS, Day 8, FIG. 6C); “the decrease in colon length was suppressed” in test [1] (DSS+preTDCA group: 5 mg/kg TDCA from 2 days before DSS, Day 8, FIG. 6C). Further, the average histological score result in test [1] (2% DSS 7 days, 5 mg/kg TDCA oral gavage, DSS+DPBS group about 7, FIG. 2C) is reported as “about 4”; in test [1] (2% DSS 7 days, TDCA at 5 and 10 mg/kg, Day 8, FIG. 5C), “about 4”. Besides, the “epithelial cell defects (histological state)” value in test [1] (setting [3]) and in test [1] (setting [4]) was “not observed” each time. For the same compound, the “infiltration of inflammatory cells into the mucous membrane” value is listed as “slight” in test [1] (setting [3]) and “alleviated” in test [1] (setting [4]). Moreover, the ulcer result in test [1] (2% DSS 7 days, 5 mg/kg TDCA oral gavage, FIG. 2C) is reported as “the ulcer was alleviated”. The ulcer alleviating effect entry in test [1] (2% DSS 7 days, TDCA at 5 and 10 mg/kg, Day 8, FIGS. 5B and 5C) is listed as “superior”. For the same compound, the “IL-1β in the colon tissue” value with IL-1β (2% DSS 7 days, 5 mg/kg TDCA oral gavage, FIG. 3B) was “decreased”; in the test with IL-1β (DSS+TDCA group: 5 mg/kg TDCA from Day 1 of DSS, FIG. 7B) it was “decreased”; in the test on IL-1β (DSS+preTDCA group: 5 mg/kg TDCA from 2 days before DSS, FIG. 7B) it was “decreased”. The “concentration of IL-1β in the colon tissue, compared with clinical prescription drugs” value in the test with IL-1β (setting [2]) is “more effectively suppressed the concentration of IL-1β than tofacitinib 10 mg/kg and 5-ASA 100 mg/kg”.
